Earlier results, collected in patent publication US20050074468A1, “Topical compositions containing nonimmunosuppressive cyclosporin derivatives for treating hair loss” (priority 2001, published 2005).

Tested on: mouse's back
Settings: relative to minoxidil

Cyclosporin A
hair regrowth effect superior to minoxidil: about 100 times
